Assay results published in paper PMC8097335, “A High‐Affinity Calmodulin‐Binding Site in the CyaA Toxin Translocation Domain is Essential for Invasion of Eukaryotic Cells” (Advanced Science, 2021).

How the values were obtained:
calmodulin (CaM) = molecular target: T1, calmodulin (CaM) (Homo sapiens, UniProt P0DP23); experiment: Peptide titrations by CaM followed by tryptophan fluorescence, and ITC (Kd for CaM); type: binding; conditions: for Kd: holo-CaM, from fluorescent titrations and ITC, 25 °C, average of at least three independent replicates; for Kd / ∆GKd for CaM: S.D. within ± 10%; for ∆GKd for CaM: ΔGKd = RTln(Kd)
T1 construct: made in house; host or cells: E. coli
From the text: peptides by CaM and is expressed as follows: 𝐾𝐾 𝑑𝑑 = [𝑃𝑃 ]∗[𝐶𝐶𝐶𝐶𝐶𝐶 ][𝑃𝑃:𝐶𝐶𝐶𝐶𝐶𝐶] , given 𝐾𝐾𝑑𝑑[𝐶𝐶𝐶𝐶𝐶𝐶]= [𝑃𝑃 ][𝑃𝑃 :𝐶𝐶𝐶𝐶𝐶𝐶]and the fraction of complex, fP:CaM, i s: 𝑓𝑓𝑃𝑃:𝐶𝐶𝐶𝐶𝐶𝐶 = [𝑃𝑃 :𝐶𝐶𝐶𝐶𝐶𝐶 ][𝑃𝑃:𝐶𝐶𝐶𝐶𝐶𝐶]+[𝑃𝑃]= 11+ [𝑃𝑃 ]= 11+ 𝐾𝐾𝑑𝑑.

[1] = Peptide titrations by SUVs followed by tryptophan fluorescence (solution-to-membrane partition); type: physicochemical; conditions: for Partition coefficient KX: POPC:POPG 8:2 SUVs, buffer A pH 7.4, 25 °C, tryptophan fluorescence ratio 330/370 nm; for Partition coefficient KX / ∆GKx for POPC POPG 8:2: S.D. within ± 10%; for Kd: converted from KX: [W]/KX = Kd, [W] = 55.5 M, read-out: Kd for POPC:POPG 8:2; for ∆GKx for POPC POPG 8:2: ∆GKx = -RT Ln Kx
Method: Lipid vesicles preparation
Small unilamellar vesicles (SUVs) and large unilamellar vesicles (LUVs) were prepared with POPC and POPG at a molar ratio of 8:2, at a lipid concentration of 10 mM in buffer A, as previously described 1. Briefly, SUVs and LUVs were prepared by reverse phase evaporation and filtered through polycarbonate filters of 1 μm and 0.2 μm of pore size diameter to obtain L UV. SUVs were further sonicated. The hydrodynamic diameters and mean net charge of the vesicles were measured by dynamic light scattering (DLS) and electrophoretic mobility, respectively, using a ZetaSizer NanoZS (Malvern Pananalytical , Orsay, France) 11.
Peptide titrations bySUV s and CaM followed by tryptophan fluorescence
Titrations were carried out with a FP-8200 Jasco spectrofluorimeter, equipped with a Pelt ie r - thermostated ETC-272T at 25°C. A bandwidth of 5 nm was used for both excitation and […]
(Hellma, France) with constant stirring. Fluorescence emission was recorded between 300 and […]
400 nm at a scan rate of 100 nm/min, with an excitation wavelength of 280 nm. Fluorescence emission spectra were corrected for SUV or CaM baselines . Fluorescence intensity ratio at 330 nm over 370 nm was use d to measure the partition coefficient (K X) of peptides between the solution andmembrane s 1, 12 and the affinity (K d) of peptides for CaM 13.
Determination of partition coefficient KX and dissociation constant Kd from […]
The partition coefficient KX is defined as the ratio of protein in the lipid (PL) and in buffer […]
(PW) pha se s 12, 14, expressed by: KKXX = [LL ]? , giving[PPWW ] [PPWW ]= [WW], where [W] the […]
concentration of water (55.5 M) and [L] the lipid concentration.
The fraction of peptide partitioned into the membrane, fPL, is equal to:
ffPPLL = [PPLL ][PPTT ]= [PPLL ][PPLL ]+[PPWW ]= 11+([PPWW ])= 11+( [WW]), where PT is the total concentration of peptides [PP TT ]= [PP LL ]+ [PP WW ]. […]
The equations a re fitted to the experimental data using the KaleidaGraph software, providing the KX and K d value s. The partition coefficient is related to the apparent dissociation constant:
KKXX × KKdd = [WW ] and to the free energy of partition ΔG Kx = -RTln(K X), where ΔG is the free energy in kcal/mol, R the gas constant (R = 1.98 x 10-3 kcal/mol/K) and T the temperature i n Kelvin. The free energy of peptide CaM interaction, ∆G Kd, is given by ΔG Kd = RTln(K d).
Sedimentation velocity-Analytical ultracentrifugation (SV -AUC) […]
ratio 1:1 (at 70 µM each). Samples were incubated 2h at 20°C in the ultracentrifuge and, then span at 42,000 rpm in an An-50 Ti rotor. […]

[2] = Membrane permeabilization of ANTS/DPX-loaded LUVs; conditions: ANTS:DPX LUVs POPC:POPG 8:2, 0.45 mM lipid, buffer A pH 7.4, 25 °C, ex 390/em 515 nm; S.D. ± 5%
Method: To monitor membrane permeabilization induced by peptides, ANTS (fluorophore probe) and
DPX (quencher) were encapsulated into large unilamellar vesicles (LUVs). The LUVs were
prepared at a concentration of 10 mM lipid at a POPC:PO PG molar ratio of 8:2 containing 20
mM ANTS and 60 mM DPX. The multilamellar vesicle suspension was extrudedthrough 0.4-
and 0.2 μm polycarbonate filters to produce LUVs. The unencapsulated ANT S a nd DPX we re
removed by gel filtration with a 5 mL Sephadex G -25 column (GE Healthcare Life Sciences ).
For permeabilization assays, LUVs were incubated in buffer A at 0.45 mM lipid
concentration at 25°C in a 101-QS cuvette (Hellma, France) and under constant stirring.
excitation wavelength was set at 390 nm and the emission of ANTS was continuously
measured at 515 nm. The maximum intensity of permeabilization, corresponding to the
maximum recovery of ANTS fluorescence, was measured after addition of 0.1% of Triton
X100. The concentration of membrane-bound peptide s required to induce the recovery of half
intensity of the ANTS fluorescence (C P1/2) was extracted from the permeabilization intensity
a s a function of peptide concentration 1.
LUVs were incubated in buffer B at a lipid concentration of 0.45 mM.
After a few seconds of permeabilization,
holo-Ca M wa s added t o t he solution at a peptide:Ca M molar ratio of 1:3. EDT A wa s
subsequently added in excess to chelate calcium and convert holo -CaM to apo -C a M .

[3] = Synchrotron radiation circular dichroism, alpha-helical content (Bestsel); type: physicochemical; conditions: 25 °C, far-UV SRCD; for alpha-helical content, TFE 20%: 20% TFE; for alpha-helical content, POPC:POPG 8:2: SUVs POPC:POPG 8:2 at 2 mM lipid; for alpha-helical content, Solution: buffer A
Method: Synchrotron Radiation Circular Dichroism
Synchrotron radiation circular dichroism (SRCD) was performed on the DISCO beamline of the synchrotron SOLEIL (Saint -Aubin, France) . Spectra were recorded at 25°C with an integration time of 1.2 s and a bandwidth of 1 nm with a resolution of 1 nm. A far-UV spectrum represents the average of four individual scans. QS cells (Hellma, France) with a pathlength of 20, 50, 100 or 200 μm (depending on final protein concentrations) were used to record spectra in the fa r -UV range (from 190 to 250 nm). CD spectra of peptides and proteins were measured in buffers A and B, 20% of trifluoroethanol (TFE), in the presence of SUVs (POPC :PO PG 8: 2) or Ca M. Secondary structure content was estimated using Bestsel software […]
Table S8: Estimation of the α -helical content of P454-derived peptides. The secondary structure content is estimated using the on-line Bestsel software 17 available at http://bestsel.elte.hu/index.php. […]
peptide in buffer A, in 20% TFE and in the presence of POPC POPG (molar ratio 8:2) at 2 mM lipid concentration. The far -UV CD spectra of several P454-derived peptides are shown […]

| Compound | Kd (calmodulin (CaM)) | ∆GKd for CaM (calmodulin (CaM)) | Partition coefficient KX [1] | Kd [1] | ∆GKx for POPC POPG 8:2 [1] | CP1/2, peptide concentration required to induce recovery of 50% of ANTS fluorescence intensity upon LUVs permeabilization [2] | alpha-helical content, TFE 20% [3] | alpha-helical content, POPC:POPG 8:2 [3] | alpha-helical content, Solution [3] | Decrease of affinity for CaM relative to P454 (calmodulin (CaM); from Table S3) |
| --- | --- | --- | --- | --- | --- | --- | --- | --- | --- | --- |
| Ac-ASAHWGQRALQGAQAVAAAQRLVSAIALMTQ-NH2 [P454 H477S] | 0.19 µM | -9.1 kcal/mol | 340 ×10^3 | 160 µM | -7.5 kcal/mol | 0.25 µM | 40 ± 1% | 20 ± 2% | 4 ± 2% |  |
| Ac-ASAHWGQRALQGAQAVAAAQRLVSAAALMTQ-NH2 [P454 H477S-I479A] | 1.19 µM | -8.0 kcal/mol | 105 ×10^3 | 530 µM | -6.8 kcal/mol | 1.88 µM | 51 ± 4% | 27 ± 3% | 2 ± 2% | ≈ 20 fold |
| Ac-ASAHWGQAALQGAQAVAAAQALVHAIALMTQ-NH2 [P454 R12A] |  |  | 280 ×10^3 | 200 µM | -7.4 kcal/mol | 0.14 µM |  |  |  |  |
| Ac-ASAHWGQRALQGAQAVAAAQRLVHAIAAMTQ-NH2 [P454 L481A] | 0.09 µM | -9.6 kcal/mol | 780 ×10^3 | 70 µM | -8 kcal/mol | 0.06 µM | 49 ± 1% | 44 ± 3% | 5 ± 1% |  |
| Ac-ASAHWGQKALQGAQAVAAAQKLVHAIALMTQ-NH2 [P454 R12K] | 0.05 µM | -9.9 kcal/mol | 220 ×10^3 | 260 µM | -7.3 kcal/mol | 0.09 µM | 45 ± 4% | 26 ± 1% | 13 ±2% |  |
| Ac-ASAHWGQQALQGAQAVAAAQRLVHAIALMTQ-NH2 [P454 R1Q] | 0.1 µM | -9.5 kcal/mol | 190 ×10^3 | 290 µM | -7.2 kcal/mol | 0.22 µM |  |  |  |  |
| Ac-ASAHWGQRALQGAQAVAAAQQLVHAIALMTQ-NH2 [P454 R2Q] | 0.18 µM | -9.2 kcal/mol | 150 ×10^3 | 370 µM | -7 kcal/mol | 0.11 µM |  |  |  |  |
| CC[C@H](C)[C@H](NC(=O)[C@H](C)NC(=O)[C@H](Cc1c[nH]cn1)NC(=O)[C@@H](NC(=O)[C@H](CC(C)C)NC(=O)[C@H](CCCNC(=N)N)NC(=O)[C@H](CCC(N)=O)NC(=O)[C@H](C)NC(=O)[C@H](C)NC(=O)[C@H](C)NC(=O)[C@@H](NC(=O)[C@H](C)NC(=O)[C@H](CCC(N)=O)NC(=O)[C@H](C)NC(=O)CNC(=O)[C@H](CCC(N)=O)NC(=O)[C@H](CC(C)C)NC(=O)[C@H](C)NC(=O)[C@H](CCCNC(=N)N)NC(=O)[C@H](CCC(N)=O)NC(=O)CNC(=O)[C@@H](N)Cc1c[nH]c2ccccc12)C(C)C)C(C)C)C(=O)N[C@@H](C)C(=O)N[C@@H](CC(C)C)C(N)=O [P458] |  |  | 190 ×10^3 | 290 µM | -7.2 kcal/mol | 1.26 µM | 50% | 23 ± 2% | 10 ± 4% |  |
